Test results from patent EP0387661A2, “New 3'-(4-morpholinyl)- and 3'-(2-methoxy-4-morpholinyl)-anthracycline derivatives” (priority 1989, dated 1990).
In brackets after ≈: the same amount, converted by molar mass.

Experiments:
[1] = tested on: LoVo (human colon adenocarcinoma); assay: in vitro cytotoxicity (colony growth inhibition) against LoVo cells; format: cell-based; conditions: concentration inhibiting by 50% colony growth, tested as hydrochlorides
Procedure: (§1) All compounds were tested as their hydrochlorides.

LoVo/DX cells = assay: in vitro cytotoxicity (colony growth inhibition) against LoVo/DX cells; format: cell-based, human; conditions: for R.I. = Resistance Index = (IC50 LoVo/DX)/(IC50 LoVo): ratio of IC50 LoVo/DX to IC50 LoVo; for Cytotoxicity after 4h of treatment (IC50) LoVo/DX: concentration inhibiting by 50% colony growth, tested as hydrochlorides
Procedure: as §1

in vivo [2] = conditions: mouse, in vivo, iv
Procedure: (§2) The biological activity of the compounds according to the invention was tested in vitro against LoVo (human colon adenocarcinoma) and LoVo/DX cells in comparison with doxorubicin. The compounds of the invention were also tested in vivo against P388 and P388/DX murine leukemia in comparison with doxorubicin. All compounds were tested as their hydrochlorides.

P388 = assay: in vivo; conditions: for %T/C (Median survival time of treated mice/median survival time of controls x 100): P388 (iv, iv+1), at optimal dose
Procedure: as §2

in vivo [3] = conditions: mouse, in vivo, iv; remark: listed apart in the source
Procedure: as §2

P388/DX Johnson = assay: in vivo; conditions: for %T/C (Median survival time of treated mice/median survival time of controls x 100): P388/DX Johnson (iv, iv+1), at optimal dose
Procedure: as §2

SMILES | IC50 ([1]; Homo sapiens, LoVo, 4h of treatment, read-out: Cytotoxicity after 4h of treatment (IC50) LoVo) [µg/mL] | R.I. = Resistance Index = (IC50 LoVo/DX)/(IC50 LoVo) (LoVo/DX cells) | MTD (in vivo [2]) [mg/kg] | %T/C (Median survival time of treated mice/median survival time of controls x 100) (P388) [%] | MTD (in vivo [3]) [mg/kg] | %T/C (Median survival time of treated mice/median survival time of controls x 100) (P388/DX Johnson) [%] | Cytotoxicity after 4h of treatment (IC50) LoVo [1] [ng/mL] | Cytotoxicity after 4h of treatment (IC50) LoVo/DX (LoVo/DX cells) [ng/mL] | O.D. (Optimal dose: maximum tolerated dose (LD10)) (P388; P388 (iv, iv+1): tumor implanted intravenously, treatment begins one day after implantation) [mg/kg] | O.D. (Optimal dose: maximum tolerated dose (LD10)) (P388/DX Johnson; P388/DX Johnson (iv, iv+1): tumor implanted intravenously, treatment begins one day after implantation) [mg/kg]
COc1cccc2c1C(=O)c1c(O)c3c(c(O)c1C2=O)C[C@@](O)(C(=O)CO)C[C@@H]3O[C@H]1C[C@H](N)[C@H](O)[C@H](C)O1 [Doxorubicin, reference compound] | 0.06 (≈ 0.11 µM) | 36 | 13 | 250 | 13 | 100 |  |  |  | 
C[C@@H]1O[C@@H](O[C@H]2C[C@](O)(C(=O)CO)Cc3c2cc2c(c3O)C(=O)c3cccc(O)c3C2=O)C[C@H](N2CCOCC2)[C@@H]1O [Ia, 4-demethyl-6-deoxy-3′-deamino-3′-(4-morpholinyl) doxorubicin] |  | 4.7 |  | 222 |  | 183 | 35.5 | 165.4 |  | 
CC(=O)[C@]1(O)Cc2c(O)c3c(c(O)c2[C@@H](O[C@H]2C[C@H](N4CCOCC4)[C@H](O)[C@H](C)O2)C1)C(=O)c1c(N)cccc1C3=O [Ib, 4-demethoxy-4-amino-3′-deamino-3′-(4-morpholinyl)-daunorubicin] |  | 2.1 |  | 156 |  | 167 | 13.7 | 28.5 |  | 
CC(=O)[C@]1(O)Cc2c(O)c3c(c(O)c2[C@@H](O[C@H]2C[C@H](N4CCOCC4)[C@@H](O)[C@H](C)O2)C1)C(=O)c1c(N)cccc1C3=O [Ic, 4-demethoxy-4-amino-3′-deamino-3′-(4-morpholinyl)-4′-epi-daunorubicin] |  | 1.3 |  |  | 20 | 195 | 36 | 48.5 |  | 
CC(=O)[C@]1(O)Cc2c(O)c3c(c(O)c2[C@@H](O[C@H]2C[C@H](N4CCOCC4)[C@@H](O)[C@H](C)O2)C1)C(=O)c1c(F)cccc1C3=O [Ie, 4-demethoxy-4-fluoro-3′-deamino-3′-(4-morpholinyl)-4′-epi-daunorubicin] |  | 3.6 | 6.3 | 411 | 6.3 | 244 | 47 | 168 |  | 
COC1CN(C2CC(OC3CC(O)(C(C)=O)Cc4c(O)c5c(c(O)c43)C(=O)c3ccccc3C5=O)OC(C)C2O)CCO1 (centres unmarked) [Il, 4-demethoxy-3′-deamino-3′-(2-methoxy-4-morpholinyl)-daunorubicin] |  | 11.5 |  | 133 |  | 161 | 0.2 | 2.3 | 0.14 | 0.36
